{"source": "patent US7344734B2", "about": "“Powder formulation” (Rijksuniversiteit Groningen, priority 2000, dated 2008)", "assay_type_in_all_cases": "physicochemical", "key": {"[1]": {"assay": "Laser diffraction analysis of the aerosol cloud from the test inhaler (cyclone)", "details": "60 l/min, 20 mg per inhalation, lactose fraction 63-106 μm, mean of 6 inhalations", "experimental": "Inhalation experiments with the mixture were performed at 60 l/min with a test inhaler (see FIG. 1), having the same disintegration principle (cyclone) as the Colistin dry powder inhaler (prototype). […]\n(§1) The aerosol cloud from the inhaler was characterized with a laser diffraction technique (Sympatec HELOS Compact, model KA with 100 mm lens) using the Fraunhofer theory. A special inhaler adapter was used in order to adjust the required flow rate through the inhaler device. The adapter consisted of a cylindrical chamber with side tubes connecting the adapter at both sides to the housing of the laser diffraction apparatus. The inhaler device was connected to the front of the adapter, whereas the vacuum system was connected to the rear end of the adapter. Thus, a closed system was created through which the flow rate can be controlled very carefully and in which the aerosol cloud passes the laser beam for the measurement. Standard HELOS software was used: start and stop of the measurement was triggered on channel 32 with 0.1% difference in optical signal (compared with the signal during reference measurement). The mass fraction of the dose delivered by the inhaler was not analyzed during these experiments (no particle collector in line with the adapter).\nII The physical mixture with 83.3% Colistin was also tested with the test inhaler at 20, 30, 40 and 50 l/min. […]"}, "[2]": {"assay": "Laser diffraction analysis of the aerosol cloud from the Pharmachemie Cyclohaler (ISF inhaler)", "details": "60 l/min, 10 mg per capsule, six inhalations", "text": "as §1\nPure micronized Colistin was also inhaled with a commercial DPI (Pharmachemie Cyclohaler equals ISF Inhaler equals Novartis Foradil Inhaler, see FIG. 3), using the same (laser diffraction) procedures. Six hard gelatin capsules (no. 3) were filled with 10 mg per capsule and the capsules were sealed before use. Inhalation time was 3 seconds. […]"}, "[3]": {"assay": "Dry laser diffraction analysis of Colistin powder (RODOS dispersion)", "experimental": "A lactose size fraction of 106-150 μm, derived from 100 M lactose (DMV International, Veghel, The Netherlands) was used as excipient. The fraction was prepared by subsequent vibratory sieving (20 minutes in a Fritsch Analysette 3, Idar-Oberstein, Germany) and air jet sieving (10 minutes in an Alpine A200, Augsburg, Germany) of small quantities (approx. 50 g) of the starting material. Micronized Colistin was prepared by fluid energy milling (GfM, Hamburg, Germany), but because the size distribution of the active ingredient was not satisfactory, size reduction of the crystalline material was continued for 26.5 hours in a ball mill (50 g in a container of 750 ml, filled with ceramic balls of different sizes to a filling degree of 67%). The container was placed on a home constructed drive. Size distributions before and after milling in the ball mill were measured with laser diffraction technique (Fraunhofer theory, using Sympatec HELOS Compact, model KA with 100 mm lens) using dry dispersion with a RODOS disperser at 4 bar."}, "[4]": {"details": "primary Colistin particles, RODOS dispersion"}}, "data": [{"substance": "Colistin", "values": [{"measurement": "X-50 (μm) From cum. undersize curve", "setting": "[1]", "result": 2.3, "unit": "μm"}, {"measurement": "X-90 (μm) From cum. Undersize curve", "setting": "[1]", "result": 7.5, "unit": "μm"}, {"measurement": "average median diameter for the aerosol cloud", "setting": "[2]", "result": 18.23, "unit": "micron"}, {"measurement": "mean diameter (X50-value)", "setting": "[3]; after size reduction in the ball mill (26.5 hours), RODOS dispersion, n=3", "result": 2.14, "unit": "μm"}, {"measurement": "X100-value", "setting": "[3]; after size reduction in the ball mill, RODOS dispersion", "result": 87.0, "unit": "μm"}, {"measurement": "mean diameter (X50-value)", "setting": "[3]; before size reduction in the ball mill, RODOS disperser at 4 bar", "result": 6.43, "unit": "μm"}, {"measurement": "X100-value", "setting": "[3]; before size reduction in the ball mill, RODOS dispersion", "result": 51.0, "unit": "μm"}, {"measurement": "X-50 (μm) From cum. undersize curve", "setting": "[3]; [4]", "result": 2.1, "unit": "μm"}, {"measurement": "X-90 (μm) From cum. Undersize curve", "setting": "[3]; [4]", "result": 31.0, "unit": "μm"}]}]}
